The test system of series [1] is recombinant NL4-3 virus (nef section replaced with Renilla luciferase gene) in MT-2 cells. As to the kind of experiment: HIV cell culture assay (antiviral activity, luciferase readout). In kind it is cell-based. The following applies: MT-2 cells infected for 4-5 days with recombinant NL4-3 luciferase virus. In a few lines:
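Serially diluted compounds were present throughout a 4-5 day infection of MT-2 cells by recombinant NL4-3 whose nef region partly encodes Renilla luciferase. Antiviral activity was taken from live-cell luciferase signal, with the 50% effective concentration fitted by the exponential median effect equation.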

Series [2] in a line: Compound cytotoxicity, XTT-based colorimetric assay. The format is cell-based. Conditions: human, uninfected MT2 cells. In outline: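 XTT colorimetric read-out on day 4 gave CC50 values, using MT2 cells left uninfected but otherwise handled as in the antiviral assay.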
A general note: Tetrazolium dyes change colour on reduction, which living cells bring about.

In general, EC50 refers to the concentration at which the effect is half-maximal. What is called CC50 is the concentration at which the toxic effect on the cells reaches its halfway point. Consider `COc1cc(F)c2c(=O)n(-c3ccc(Cl)c4c(NS(C)(=O)=O)nn(C)c34)c([C@H](Cc3cc(F)cc(F)c3)NC(=O)Cn3nc(C(F)F)c4c3C(F)(F)[C@@H]3C[C@H]43)nc2c1` (single isomer, unassigned) [Example 186], for which the EC50 in series [1] (Table 1a) amounted to 0.072 nM. The CC50 at 4 days in series [2] (Table 1a, day 4, XTT) is > 1000 nM.

Consider `COc1cc(F)c2c(=O)n(-c3ccc(Cl)c4c(NS(C)(=O)=O)nn(C)c34)c([C@H](Cc3cc(F)cc(F)c3)NC(=O)Cn3ccc(C4CC4)n3)nc2c1` (single isomer, unassigned) [Example 189], for which the EC50 in series [1] (Table 1a) was 6.46 nM. In addition, the CC50 at 4 days in series [2] (Table 1a, day 4, XTT) is > 1000 nM.

`COc1ccc2c(=O)n(-c3ccc(Cl)c4c(NS(C)(=O)=O)nn(CC(F)F)c34)c([C@H](Cc3cc(F)cc(F)c3)NC(=O)Cn3nc(C(F)F)c4c3C(F)(F)[C@@H]3C[C@H]43)nc2c1` (single isomer, unassigned) [Example 191]: the EC50 in series [1] (Renilla, NL43, Table 1a) was found to be 0.06 nM. Moreover, the CC50 at 4 days in series [2] (Table 1a, day 4, XTT) is > 1000 nM.

Regarding `COc1ccc2c(=O)n(-c3ccc(Cl)c4c(NS(=O)(=O)C5CC5)nn(CC(F)F)c34)c([C@H](Cc3cc(F)cc(F)c3)NC(=O)Cn3nc(C(F)F)c4c3C(F)(F)[C@@H]3C[C@H]43)nc2c1` (single isomer, unassigned) [Example 192], the EC50 in series [1] (Renilla, NL43, Table 1a) stood at 0.04 nM. The CC50 at 4 days in series [2] (Table 1a, day 4, XTT) was > 1000 nM.

As for `Cn1nc(NS(C)(=O)=O)c2c(Cl)ccc(-n3c([C@H](Cc4cc(F)cc(F)c4)NC(=O)Cn4nc(C(F)F)c5c4C(F)(F)[C@@H]4C[C@H]54)nc4cc(C(C)(F)F)ccc4c3=O)c21` (single isomer, unassigned) [Example 196], the EC50 in series [1] (Renilla, NL43, Table 1a) turned out to be 0.081 nM. Besides, the CC50 at 4 days in series [2] (Table 1a, day 4, XTT) was > 1000 nM.

As to `Cn1nc(NS(C)(=O)=O)c2c(Cl)ccc(-n3c([C@H](Cc4cc(F)cc(F)c4)NC(=O)Cn4ccc(C5CC5)n4)nc4cc(C(C)(C)S(C)(=O)=O)ccc4c3=O)c21` (single isomer, unassigned) [Example 212], in series [1] (Renilla, NL43, Table 1a), the concentration for a half-maximal effect (EC50) is 0.63 nM. The CC50 at 4 days in series [2] (Table 1a, day 4, XTT) is > 1000 nM.

`Cn1nc(NS(C)(=O)=O)c2c(Cl)ccc(-n3c(C(Cc4cc(F)cc(F)c4)NC(=O)Cn4nc(C(F)F)c5c4C(F)(F)C4CC54)nc4nc(Cl)ccc4c3=O)c21` (stereo in doubt) [Example 12.1, N—((S)-1-(7-chloro-3-(4-chloro-1-methyl-3-(methylsulfonamido)-1H-indazol-7-yl)-4-oxo-3,4-dihydropyrido[2,3-d]pyrimidin-2-yl)-2-(3,5-difluorophenyl)ethyl)-2-((3bS,4aR)-3-(difluoromethyl)-5,5-difluoro-3b,4,4a,5-tetrahydro-1H-cyclopropa[3,4]cyclopenta[1,2-c]pyrazol-1-yl)acetamide]: the EC50 in series [1] (Renilla, NL43, Table 1) was 4310 nM. The CC50 at 4 days in series [2] (Table 1, day 4, XTT) was > 10000 nM.

On to `COc1ccc2c(=O)n(-c3ccc(Cl)c4c(NS(C)(=O)=O)nn(C)c34)c(C(Cc3cc(F)cc(F)c3)NC(=O)Cn3nc(C(F)F)c4c3C(F)(F)C3CC43)nc2n1` (stereo in doubt) [Example 13.1, N—((S)-1-(3-(4-chloro-1-methyl-3-(methylsulfonamido)-1H-indazol-7-yl)-7-methoxy-4-oxo-3,4-dihydropyrido[2,3-d]pyrimidin-2-yl)-2-(3,5-difluorophenyl)ethyl)-2-((3bS,4aR)-3-(difluoromethyl)-5,5-difluoro-3b,4,4a,5-tetrahydro-1H-cyclopropa[3,4]cyclopenta[1,2-c]pyrazol-1-yl)acetamide], for which the EC50 in series [1] (Renilla, NL43, Table 1) amounted to 14300 nM. The CC50 at 4 days in series [2] (Table 1, day 4, XTT) is > 10000 nM.

Regarding `COc1ccc2c(=O)n(-c3ccc(Cl)c4c(NS(C)(=O)=O)nn(C)c34)c([C@H](Cc3cc(F)cc(F)c3)NC(=O)Cn3nc(C(F)F)c4c3C(F)(F)C3CC43)nc2n1` (stereo in doubt) [Example 13.2, N—((S)-1-(3-(4-chloro-1-methyl-3-(methylsulfonamido)-1H-indazol-7-yl)-7-methoxy-4-oxo-3,4-dihydropyrido[2,3-d]pyrimidin-2-yl)-2-(3,5-difluorophenyl)ethyl)-2-((3bS,4aR)-3-(difluoromethyl)-5,5-difluoro-3b,4,4a,5-tetrahydro-1H-cyclopropa[3,4]cyclopenta[1,2-c]pyrazol-1-yl)acetamide], in series [1] (Renilla, NL43, Table 1), the EC50 is 18 nM. The CC50 at 4 days in series [2] (Table 1, day 4, XTT) is > 10000 nM.

On to `Cn1nc(NS(C)(=O)=O)c2c(Cl)ccc(-c3cc4scnc4nc3C(Cc3cc(F)cc(F)c3)NC(=O)Cc3c[nH]c4ccc(O)cc34)c21` (stereo not drawn) [Example 1.7, N-(1-(6-(4-chloro-1-methyl-3-(methylsulfonamido)-1H-indazol-7-yl)thiazolo[4,5-b]pyridin-5-yl)-2-(3,5-difluorophenyl)ethyl)-2-(5-hydroxy-1H-indol-3-yl)acetamide], for which the EC50 in series [1] (Renilla, NL43, Table 1) was determined as 11 nM. In addition, in series [2] (Table 1, day 4, XTT), the CC50 at 4 days is > 100000 nM.

Consider `Cn1nc(NS(C)(=O)=O)c2c(Cl)ccc(-c3cc4[nH]ncc4nc3[C@H](Cc3cc(F)cc(F)c3)NC(=O)Cn3nc(C(F)F)c4c3C(F)(F)[C@@H]3C[C@H]43)c21` [Example 3.7, N—((S)-1-(6-(4-chloro-1-methyl-3-(methylsulfonamido)-1H-indazol-7-yl)-1H-pyrazolo[4,3-b]pyridin-5-yl)-2-(3,5-difluorophenyl)ethyl)-2-((3bS,4aR)-3-(difluoromethyl)-5,5-difluoro-3b,4,4a,5-tetrahydro-1H-cyclopropa[3,4]cyclopenta[1,2-c]pyrazol-1-yl)acetamide], for which the EC50 in series [1] (Renilla, NL43, Table 1) was determined as 1.2 nM. Besides, the CC50 at 4 days in series [2] (Table 1, day 4, XTT) amounted to 33900 nM.

`Cn1nc(NS(C)(=O)=O)c2c(Cl)ccc(-c3cc4[nH]ncc4nc3[C@@H](Cc3cc(F)cc(F)c3)NC(=O)Cn3nc(C(F)F)c4c3C(F)(F)[C@@H]3C[C@H]43)c21` [Example 3.8, N—((R)-1-(6-(4-chloro-1-methyl-3-(methylsulfonamido)-1H-indazol-7-yl)-1H-pyrazolo[4,3-b]pyridin-5-yl)-2-(3,5-difluorophenyl)ethyl)-2-((3bS,4aR)-3-(difluoromethyl)-5,5-difluoro-3b,4,4a,5-tetrahydro-1H-cyclopropa[3,4]cyclopenta[1,2-c]pyrazol-1-yl)acetamide]: the EC50 in series [1] (Renilla, NL43, Table 1) was determined as 21 nM. Besides, it took 10200 nM to reach half-maximal cytotoxicity in series [2] (Table 1, day 4, XTT) (CC50 at 4 days).

Regarding `COc1ccc(-n2c([C@H](Cc3cc(F)cc(F)c3)NC(=O)Cn3nc(C(F)F)c4c3C(F)(F)[C@@H]3C[C@H]43)nc3ncccc3c2=O)cc1` [Example 9.1, 2-((3bS,4aR)-3-(difluoromethyl)-5,5-difluoro-3b,4,4a,5-tetrahydro-1H-cyclopropa[3,4]cyclopenta[1,2-c]pyrazol-1-yl)-N—((S)-2-(3,5-difluorophenyl)-1-(3-(4-methoxyphenyl)-4-oxo-3,4-dihydropyrido[2,3-d]pyrimidin-2-yl)ethyl)acetamide], the EC50 in series [1] (Renilla, NL43, Table 1) turned out to be 6.1 nM. The midpoint of cytotoxicity in series [2] (Table 1, day 4, XTT), the CC50 at 4 days, lay at 8100 nM.

As to `COc1ccc(-n2c([C@H](Cc3cc(F)cc(F)c3)NC(=O)Cc3c[nH]c4ccc(O)cc34)nc3ncccc3c2=O)cc1` [Example 9.2, (S)—N-(2-(3,5-difluorophenyl)-1-(3-(4-methoxyphenyl)-4-oxo-3,4-dihydropyrido[2,3-d]pyrimidin-2-yl)ethyl)-2-(5-hydroxy-1H-indol-3-yl)acetamide], in series [1] (Renilla, NL43, Table 1), the EC50 turned out to be 4.7 nM. Besides, the CC50 at 4 days in series [2] (Table 1, day 4, XTT) is > 10000 nM.

With `N#Cc1cccc(-c2cc3[nH]ncc3nc2[C@H](Cc2cc(F)cc(F)c2)NC(=O)Cn2nc(C(F)F)c3c2C(F)(F)[C@@H]2C[C@H]32)c1` [Example 10.2, N—((S)-1-(6-(3-cyanophenyl)-1H-pyrazolo[4,3-b]pyridin-5-yl)-2-(3,5-difluorophenyl)ethyl)-2-((3bS,4aR)-3-(difluoromethyl)-5,5-difluoro-3b,4,4a,5-tetrahydro-1H-cyclopropa[3,4]cyclopenta[1,2-c]pyrazol-1-yl)acetamide], the EC50 in series [1] (Renilla, NL43, Table 1) was 460 nM. In series [2] (Table 1, day 4, XTT), this molecule had a CC50 at 4 days of 9700 nM.

For the molecule `NC(=O)c1cc(-c2cc3[nH]ncc3nc2[C@H](Cc2cc(F)cc(F)c2)NC(=O)Cn2nc(C(F)F)c3c2C(F)(F)[C@@H]2C[C@H]32)ccc1Cl` [Example 10.3, 2-Chloro-5-(5-((S)-1-(2-((3bS,4aR)-3-(difluoromethyl)-5,5-difluoro-3b,4,4a,5-tetrahydro-1H-cyclopropa[3,4]cyclopenta[1,2-c]pyrazol-1-yl)acetamido)-2-(3,5-difluorophenyl)ethyl)-1H-pyrazolo[4,3-b]pyridin-6-yl)benzamide], in series [1] (Renilla, NL43, Table 1), the EC50 turned out to be 84 nM. Moreover, in series [2] (Table 1, day 4, XTT), the CC50 at 4 days is > 10000 nM.

Turning to `N#Cc1ccc(-c2cc3[nH]ncc3nc2[C@H](Cc2cc(F)cc(F)c2)NC(=O)Cn2nc(C(F)F)c3c2C(F)(F)[C@@H]2C[C@H]32)cc1F` [Example 10.4, N—((S)-1-(6-(4-cyano-3-fluorophenyl)-1H-pyrazolo[4,3-b]pyridin-5-yl)-2-(3,5-difluorophenyl)ethyl)-2-((3bS,4aR)-3-(difluoromethyl)-5,5-difluoro-3b,4,4a,5-tetrahydro-1H-cyclopropa[3,4]cyclopenta[1,2-c]pyrazol-1-yl)acetamide], the EC50 in series [1] (Renilla, NL43, Table 1) turned out to be 1150 nM. This molecule also came in with a CC50 at 4 days in series [2] (Table 1, day 4, XTT) of 8240 nM.

As to `N#Cc1ccc(-c2cc3[nH]ncc3nc2[C@H](Cc2cc(F)cc(F)c2)NC(=O)Cn2nc(C(F)F)c3c2C(F)(F)[C@@H]2C[C@H]32)cc1` [Example 10.5, N—((S)-1-(6-(4-cyanophenyl)-1H-pyrazolo[4,3-b]pyridin-5-yl)-2-(3,5-difluorophenyl)ethyl)-2-((3bS,4aR)-3-(difluoromethyl)-5,5-difluoro-3b,4,4a,5-tetrahydro-1H-cyclopropa[3,4]cyclopenta[1,2-c]pyrazol-1-yl)acetamide], the EC50 in series [1] (Renilla, NL43, Table 1) was found to be 300 nM. For the same molecule, it took 9350 nM to reach half-maximal cytotoxicity in series [2] (Table 1, day 4, XTT) (CC50 at 4 days).
